Key:
Type in all cases: in vivo
[1] = test system: Haemaphysalis longicornis; test: Test Example 11: coated screw tube against nymphal ticks Haemaphysalis longicornis; details: 2 mg compound coated on inner wall of screw tube, 5 non-blood-sucking nymphal ticks, after 2 days
Procedure: Each 2 mg of the present compounds 1, 5, 8, 15-16, 19, 23, 25-27, 30, 37, 40, 49, 61, 63, 99 and 516 was put into a screw tube (Maruemu No. 5; 27×55 mm). Acetone (0.2 ml) was added thereto and sealed with a cap. After dissolving the compound in acetone, the screw tube was rotated and inverted to uniformity coat the solution onto the whole inner wall of the tube. After removing the cap, the solution was air-dried for about 2 hours. Then, non-blood-sucking nymphal ticks, Haemaphysalis longicornis (5 ticks/group) were released into the tube, and the tube was sealed with the cap. After 2 days, the number of dead tick was counted, and a death rate was calculated according to the following equation: Death rate (%)=(Number of dead tick/Number of tested tick)×100

Musca domestica = test: Test Example 8: filter paper with sucrose bait against Musca domestica; details: 500 ppm test solution, 0.7 ml on filter paper, 10 female imagoes, after 24 hours
Procedure: Each test solution was prepared by diluting a formulation containing any of the present compounds 1, 3-5, 8, 15-16, 19-20, 23, 27, 29, 37, 40, 44, 48, 60-61, 64, 72, 74, 518, 523 and 528 as obtained in Formulation Example 5, with water so as to give 500 ppm of the concentration of the active ingredient.
(§1) A filter paper having a diameter of 5.5 cm was spread on the bottom of a polyethylene cup having a diameter of 5.5 cm and each test solution (0.7 ml) was added dropwise onto the filter paper. As a bait sucrose (30 mg) was uniformly placed on the filter paper. Into the polyethylene cup, 10 female imagoes of Musca domestica were released and the cup was sealed with a lid. After 24 hours, the number of surviving Musca domestica was examined and the death rate of the pest was calculated.

Blattalla germanica = test: Test Example 9: filter paper with sucrose bait against Blattalla germanica; details: 500 ppm test solution, 0.7 ml on filter paper, 2 male imagoes, after 6 days
Procedure: Each test solution was prepared by diluting a formulation containing any of the present compounds 4-5, 19-20, 28-29, 40, 44, 48, 60, 71-74, 89, 523 and 528 as obtained in Formulation Example 5, with water so as to give 500 ppm of the concentration of the active ingredient.
as §1, with “2 male” for “10 female”, “Blattalla germanica” for “Musca domestica”, “6 days,” for “24 hours,”

Compound | death rate [1] [%] | death rate (Musca domestica) [%] | death rate (Blattalla germanica) [%]
CCSc1cccnc1-c1nc2cc(C(F)(F)F)cnc2n1C [compound 1] | 100 | 100 | –
CCS(=O)(=O)c1cccnc1-c1nc2cc(C(F)(F)F)cnc2n1C [compound 3] | – | 100 | –
CCSc1cc(C(F)(F)F)cnc1-c1nc2cc(C(F)(F)F)cnc2n1C [compound 4] | – | – | 100
CCS(=O)(=O)c1cc(C(F)(F)F)cnc1-c1nc2cc(C(F)(F)F)cnc2n1C [compound 5] | 100 | 100 | 100
CCS(=O)(=O)c1cccnc1-c1nc2cc(C(F)(F)C(F)(F)F)cnc2n1C [compound 8] | 100 | 100 | –
CCS(=O)(=O)c1cccnc1-c1nc2cc(SC(F)(F)F)cnc2n1C [compound 15] | 100 | 100 | –
CCS(=O)(=O)c1cccnc1-c1nc2cc(S(=O)(=O)C(F)(F)F)cnc2n1C [compound 16] | 100 | 100 | –
CCS(=O)(=O)c1cc(C(F)(F)F)cnc1-c1nc2cc(C(F)(F)C(F)(F)F)cnc2n1C [compound 19] | 100 | 100 | 100
CCS(=O)(=O)c1cccnc1-c1nc2cc([S+]([O-])C(F)(F)F)cnc2n1C (stereo not shown) [compound 20] | – | 100 | 100
CCS(=O)(=O)c1cc(C(F)(F)F)cnc1-c1nc2cc(S(=O)(=O)C(F)(F)F)cnc2n1C [compound 25] | 100 | – | –
CCS(=O)(=O)c1cccnc1-c1nc2cc(C(F)(F)C(F)(F)F)ccc2n1C [compound 27] | 100 | 100 | –
CCSc1cc(C(F)(F)F)cnc1-c1nc2cc(SC(F)(F)F)cnc2n1C [compound 28] | – | – | 100
CCSc1cccnc1-c1nc2cc(C(F)(F)F)ccc2n1C [compound 30] | 100 | – | –
CCS(=O)(=O)c1cc(C(F)(F)F)cnc1-c1nc2cc(C(F)(F)C(F)(F)F)ccc2n1C [compound 40] | 100 | 100 | 100
CCS(=O)(=O)c1cc(C(F)(F)F)cnc1-c1nc2cc(SC(F)(F)F)cnc2n1C [compound 44] | – | 100 | 100
CCS(=O)(=O)c1cc(C(F)(F)F)cnc1-c1nc2cc(C(F)(F)F)c[n+]([O-])c2n1C [compound 48] | – | 100 | 100
CCSc1cccnc1-c1nc2cc(OC(F)(F)F)ccc2n1C [compound 49] | 100 | – | –
CCS(=O)(=O)c1cc(C(F)(F)F)cnc1-c1nc2cc([S+]([O-])C(F)(F)F)cnc2n1C (stereo not shown) [compound 60] | – | 100 | 100
CCSc1cccnc1-c1nc2cc(SC(F)(F)F)ccc2n1C [compound 61] | 100 | 100 | –
CCS(=O)(=O)c1cccnc1-c1nc2cc(SC(F)(F)F)ccc2n1C [compound 63] | 100 | – | –
CCS(=O)(=O)c1cccnc1-c1nc2cc(S(=O)(=O)C(F)(F)F)ccc2n1C [compound 64] | – | 100 | –
CCSc1cc(C(F)(F)C(F)(F)F)cnc1-c1nc2cc(C(F)(F)F)cnc2n1C [compound 71] | – | – | 100
CCS(=O)(=O)c1cc(C(F)(F)C(F)(F)F)cnc1-c1nc2cc(C(F)(F)F)cnc2n1C [compound 72] | – | 100 | –
CCS(=O)(=O)c1cc(C(F)(F)C(F)(F)F)cnc1-c1nc2cc(C(F)(F)C(F)(F)F)cnc2n1C [compound 74] | – | 100 | 100
CCS(=O)(=O)c1cc(C(F)(F)F)cnc1-c1nc2cc(C(F)(F)F)c(Cl)nc2n1C [compound 89] | – | – | 100
CCS(=O)(=O)c1cc(C(F)(F)F)cnc1-c1nc2cc(C(F)(F)F)c(N(C)C)nc2n1C [compound 99] | 100 | – | –
CCSc1cccnc1-c1nc2cc(C(F)(F)F)cc(Sc3ccccc3)c2n1C [compound 516] | 100 | – | –
CCS(=O)(=O)c1cccnc1-c1nc2cc(C(F)(F)F)cc(S(=O)(=O)CC(F)(F)F)c2n1C [compound 518] | – | 100 | –
CCS(=O)(=O)c1cc(C(F)(F)F)cnc1-c1nc2cc(C(F)(F)C(F)(F)F)c[n+]([O-])c2n1C [compound 523] | – | 100 | 100
CCS(=O)(=O)c1cc(C(OC)(OC)OC)cnc1-c1nc2cc(C(F)(F)C(F)(F)F)cnc2n1C [compound 528] | – | 100 | 100

— patent US9353110B2, “Fused heterocyclic compound” (Sumitomo Chemical Company, Limited, priority 2011, dated 2016)
